Data as given in US6420367B1, “Pyrimidine derivatives exhibiting antitumor activity” (Shionogo & Co., Ltd., priority 1998, dated 2002).
In brackets after ≈: the same amount, converted by molar mass.

What was measured:
[1] = tested on: DT-C cells (pGV-P-transfected v-ki-ras-transformed NIH3T3 cells); experiment: Luciferase activity in control DT-C cells (IC50-C): non-specific transcription-inhibitory effect or cytotoxicity; type: cell-based, mouse; conditions: tested concentration nearest to 50% inhibition in DT-C cells; index of non-specific transcription inhibition or cytotoxicity
Source text: Test Example 1 Inhibitory Effect Against Cellular Signaling Derived From Ras Oncogene Products
1) Establishment of Cell Lines Used in Assay
Based on the reporter plasmid (pGV-P (Toyo Ink, Japan)), in which luciferase gene was ligated to SV40-derived minimal promoter, we constructed a plasmid designated pRRE3-luc by inserting 3 copies of chemically synthesized oligonucleotides (Sequence: CAGGATATGACTCT, derived from mouse NVL-3 (M. A. Reddy et al.(1992)Mol. Endocrinol., 6, 1051)) into upstream of the promoter. v-ki-ras-transformed NIH3T3 cells (DT cells, provided by Dr. Makoto Noda (Kyoto Univ., School of medicine)) were transfected with this plasmid by liposome-mediated transfection and transfected cell lines stably incorporated and maintained each plasmid were obtained. We named pGV-P and pRRE3-transfected cell line as DT-C and DT-R, respectively and used in the assay described below.
2) Preparation of Samples
i) All the cell lines were cultured in Dulbecco's Modified Essential Medium (DMEM: 10% Fetal Calf Serum(FCS: Hyclone, USA)) including […] kanamycin (Meiji Seika, Japan) in humidified incubator under condition of 5% CO2 at 37° C.
ii) DT-C and DT-R cells were seeded at 2500 cells/well into flat-bottom 96 well multiplate (Sumitomo bakelite) and incubated for 24 hours.
iii) Test compounds were prepared as 1 mg/ml DMSO solution.
iv) The solution of test compounds were added to the culture. Tested compounds are used at the concentration from […] to 0.51 ng/ml with by 3-fold dilution.
v) After 24 hours, the culture supernatant was completely aspirated and […] of cell-lysing solution (PGC-50 (Toyo Ink, Japan)) was added before cells were dried up. In order to the cells were lysed completely, multiwell plates were left at room temperature for 10 to 30 min. The plates were wrapped up and stored at −20° C. till the day of measurement.
3) Measurement of Samples
i) Melt the samples by putting 96 well multiplate at 37° C. and add 90 μl/well 25 mM Tris (pH 7.5).
ii) Transfer 50 μl of the sample (110 μl) to the 96 well microplate for measurement (Microlite 1 (Dynatech)).
iii) Measure the samples by the luminometer, LUMINOUS CT9000D (Dia-Yatron, Japan). We used Pickagene luminescence kit PGL2000 or LT2.0 (Toyo Ink, Japan) as substrates for luminescence measurement (50 μl/well).
4) Judgment of the Results
i) The luciferase activity of DT-C cells and DT-R cells were plotted in the graph where the relative activity and the compound concentration were expressed as Y-axis and X-axis, respectively. We judged by the degree of dissociation between the activities of DT-C cells and DT-R cells as an index.
ii) Concretely, efficacy of the compound was expressed by two values described below.
b) Among the points of concentration tested, the concentration which is the nearest to 50% inhibition concentration at DT-C cells (IC50-C), was shown as an index of non-specific transcription-inhibitory effect or of cytotoxicity. In case of positive compounds, 50% inhibition concentration above the area of active concentration in DT-C cells was expressed as IC50-C.

[2] = tested on: DT-R cells (pRRE3-luc-transfected v-ki-ras-transformed NIH3T3 cells); signal derived from Ras oncogene products; experiment: Inhibitory effect against cellular signaling derived from Ras oncogene products: luciferase reporter, dissociation of DT-R from DT-C activity (MAC); type: cell-based, mouse; conditions: minimal tested concentration at which luciferase activities of DT-C cells and DT-R cells dissociated
Method in brief: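 Value is a minimal active concentration: lowest dose where Ras-responsive reporter (DT-R) luciferase diverges from SV40-minimal-promoter control (DT-C). Both transfected v-Ki-ras NIH3T3 lines received 3-fold serial dilutions for 24 h at 37 °C in 10% FCS medium before lysis and luminometry.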

[3] = tested on: human squamous lung cancer RERF-RC-AI; experiment: In vitro cell growth inhibition test, MTT assay; type: cell-based; conditions: MTT assay 4 days after compound addition
Method in brief: (§1)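 MTT read-out; human cancer cell panel (lung squamous, lung adeno, colon, plus pancreas PANC-1).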

[4] = tested on: human lung adenocarcinoma A549; experiment: In vitro cell growth inhibition test, MTT assay; type: cell-based; conditions: MTT assay 4 days after compound addition
Method in brief: as §1

[5] = tested on: human pancreas cancer PANC-1; experiment: In vitro cell growth inhibition test, MTT assay; type: cell-based; conditions: MTT assay 4 days after compound addition
Method in brief: as §1

human colon cancer HT29 = experiment: In vitro cell growth inhibition test, MTT assay; type: cell-based; conditions: MTT assay 4 days after compound addition
Method in brief: as §1

[6] = tested on: human squamous lung cancer Ma44; experiment: In vitro cell growth inhibition test, MTT assay; type: cell-based; conditions: MTT assay 4 days after compound addition
Method in brief: as §1

| SMILES | IC50-C [1] | MAC (Minimal Active Concentration) [2] | IC50, RERF-LC-AI [3] | IC50, A549 [4] | IC50, PANC-1 [5] | IC50, HT29 (human colon cancer HT29) | IC50, Ma44 [6] |
| --- | --- | --- | --- | --- | --- | --- | --- |
| CNC(=Nc1nc(C)ncc1CSc1nnc(-c2ccc([N+](=O)[O-])cc2OC)o1)NC [Compound A-162] | >10 µg/mL | 0.123 µg/mL | 0.0085 µg/mL (≈ 0.0191 µM) | 0.028 µg/mL (≈ 0.063 µM) | 0.0093 µg/mL (≈ 0.0209 µM) | 0.0067 µg/mL (≈ 0.0151 µM) | 0.014 µg/mL (≈ 0.0315 µM) |
| CCCNC(=Nc1nc(CC)ncc1CSc1nnc(-c2ccc(F)cc2N)o1)NCCC [Compound A-140] | 3.33 µg/mL (≈ 7.05 µM) | 0.0137 µg/mL | 0.015 µg/mL (≈ 0.0317 µM) | 0.022 µg/mL (≈ 0.0466 µM) | 0.012 µg/mL (≈ 0.0254 µM) | 0.013 µg/mL (≈ 0.0275 µM) | 0.047 µg/mL (≈ 0.0995 µM) |
| CCNC(=Nc1nc(C(C)C)ncc1CSc1nnc(-c2ccc([N+](=O)[O-])cc2)o1)NCC [Compound A-130] | 3.33 µg/mL (≈ 7.08 µM) | 0.123 µg/mL | 0.023 µg/mL (≈ 0.0489 µM) | 0.074 µg/mL (≈ 0.157 µM) | 0.018 µg/mL (≈ 0.0383 µM) | 0.029 µg/mL (≈ 0.0616 µM) | 0.039 µg/mL (≈ 0.0829 µM) |
| CCCNC(=Nc1nc(C)ncc1CSc1nnc(-c2ccc(C)cc2)o1)NCCC [Compound A-143] | 1.11 µg/mL (≈ 2.53 µM) | 0.0412 µg/mL | 0.023 µg/mL (≈ 0.0523 µM) | 0.052 µg/mL (≈ 0.118 µM) | 0.02 µg/mL (≈ 0.0455 µM) | 0.024 µg/mL (≈ 0.0546 µM) | 0.033 µg/mL (≈ 0.0751 µM) |
| CNC(=Nc1nc(C)ncc1CSc1nnc(-c2ccc([N+](=O)[O-])cc2)o1)NC(C)C [Compound A-170] | >10 µg/mL | <0.000508 µg/mL | 0.0027 µg/mL (≈ 0.0061 µM) | 0.014 µg/mL (≈ 0.0316 µM) | 0.0065 µg/mL (≈ 0.0147 µM) | 0.0077 µg/mL (≈ 0.0174 µM) | 0.0054 µg/mL (≈ 0.0122 µM) |
| CNC(=Nc1nc(C)ncc1CSc1nnc(-c2ccc([N+](=O)[O-])cc2)o1)NC [Compound A-145] | >10 µg/mL | 0.0412 µg/mL | 0.005 µg/mL (≈ 0.0121 µM) | 0.09 µg/mL (≈ 0.217 µM) | 0.014 µg/mL (≈ 0.0338 µM) | 0.007 µg/mL (≈ 0.0169 µM) | 0.032 µg/mL (≈ 0.0772 µM) |
| CCCNC(=Nc1nc(C)ncc1CSc1nnc(-c2ccc([N+](=O)[O-])cc2)o1)NC [Compound A-146] | >10 µg/mL | 0.0137 µg/mL | 0.011 µg/mL (≈ 0.0249 µM) | 0.18 µg/mL (≈ 0.407 µM) | 0.024 µg/mL (≈ 0.0542 µM) | 0.014 µg/mL (≈ 0.0316 µM) | 0.052 µg/mL (≈ 0.118 µM) |
| CCNC(=Nc1nc(C)ncc1CSc1nnc(-c2ccc([N+](=O)[O-])cc2)o1)NC [Compound A-133] | >10 µg/mL | 0.0137 µg/mL | 0.01 µg/mL (≈ 0.0233 µM) | 0.047 µg/mL (≈ 0.11 µM) | 0.015 µg/mL (≈ 0.035 µM) | 0.068 µg/mL (≈ 0.159 µM) | 0.015 µg/mL (≈ 0.035 µM) |
| CCCNC(=Nc1nc(C)ncc1CSc1nnc(-c2ccc(Cl)cc2)o1)NCCC [Compound A-142] | 1.11 µg/mL (≈ 2.41 µM) | 0.0412 µg/mL | 0.018 µg/mL (≈ 0.0391 µM) | 0.038 µg/mL (≈ 0.0826 µM) | 0.015 µg/mL (≈ 0.0326 µM) | 0.032 µg/mL (≈ 0.0696 µM) | 0.021 µg/mL (≈ 0.0457 µM) |
| CCNC(=Nc1ncncc1CSc1nnc(-c2ccccc2N)o1)NCC [Compound A-33] | >10 µg/mL | 0.0137 µg/mL | 0.004 µg/mL (≈ 0.01 µM) | 0.012 µg/mL (≈ 0.0301 µM) | 0.0076 µg/mL (≈ 0.0191 µM) | 0.0071 µg/mL (≈ 0.0178 µM) | 0.0087 µg/mL (≈ 0.0218 µM) |
| CCNC(=Nc1nc(C)ncc1CSc1nnc(-c2ccc([N+](=O)[O-])cc2)o1)NCC.Cl [Compound A-187] | >10 µg/mL | 0.0137 µg/mL | 0.012 µg/mL | 0.025 µg/mL | 0.014 µg/mL | 0.013 µg/mL | 0.017 µg/mL |
| CCNC(=Nc1nc(C)ncc1CSc1nnc(-c2ccc(Cl)cc2Cl)o1)NCC [Compound A-80] | 3.33 µg/mL (≈ 7.14 µM) | 0.370 µg/mL | 0.018 µg/mL (≈ 0.0386 µM) | 0.1 µg/mL (≈ 0.214 µM) | 0.05 µg/mL (≈ 0.107 µM) | 0.024 µg/mL (≈ 0.0515 µM) | 0.062 µg/mL (≈ 0.133 µM) |
| CCNC(=Nc1ncncc1CSc1nnc(-c2ccc([N+](=O)[O-])cc2)o1)NC(C)C [Compound A-121] | >10 µg/mL | <0.000508 µg/mL | 0.02 µg/mL (≈ 0.0452 µM) | 0.058 µg/mL (≈ 0.131 µM) | 0.02 µg/mL (≈ 0.0452 µM) | 0.02 µg/mL (≈ 0.0452 µM) | 0.02 µg/mL (≈ 0.0452 µM) |
| CCNC(=Nc1ncncc1CSc1nnc(-c2ccncc2)o1)NCC [Compound D-41] | >10 µg/mL | 1.11 µg/mL | 0.024 µg/mL (≈ 0.0624 µM) | 0.07 µg/mL (≈ 0.182 µM) | 0.049 µg/mL (≈ 0.127 µM) | 0.04 µg/mL (≈ 0.104 µM) | 0.055 µg/mL (≈ 0.143 µM) |
| CCNC(=Nc1nc(C)ncc1CSc1nnc(-c2ccc(N)cc2)o1)NC(C)C [Compound A-182] | 3.3 µg/mL (≈ 7.74 µM) | 0.0137 µg/mL | 0.0056 µg/mL (≈ 0.0131 µM) | 0.014 µg/mL (≈ 0.0328 µM) | 0.0073 µg/mL (≈ 0.0171 µM) | 0.011 µg/mL (≈ 0.0258 µM) | 0.016 µg/mL (≈ 0.0375 µM) |
| CNC(=Nc1ncncc1CSc1nnc(-c2ccc(N)cc2)o1)NC [Compound A-174] | >10 µg/mL | 0.37 µg/mL | 0.0067 µg/mL (≈ 0.0181 µM) | 0.032 µg/mL (≈ 0.0864 µM) | 0.014 µg/mL (≈ 0.0378 µM) | 0.012 µg/mL (≈ 0.0324 µM) | 0.076 µg/mL (≈ 0.205 µM) |
| CCNC(=Nc1nc(C)ncc1CSc1nnc(-c2ccc(O)cc2)o1)NCC [Compound A-88] | >10 µg/mL | 0.123 µg/mL | 0.02 µg/mL (≈ 0.0484 µM) | 0.14 µg/mL (≈ 0.339 µM) | 0.036 µg/mL (≈ 0.0871 µM) | 0.043 µg/mL (≈ 0.104 µM) | 0.097 µg/mL (≈ 0.235 µM) |
| CCNC(=Nc1ncncc1CSc1nnc(-c2ccc(CN)cc2)o1)NCC [Compound A-119] | >10 µg/mL | 0.37 µg/mL | 0.023 µg/mL (≈ 0.0558 µM) | 1.2 µg/mL (≈ 2.91 µM) | 0.068 µg/mL (≈ 0.165 µM) | 0.1 µg/mL (≈ 0.242 µM) | 0.2 µg/mL (≈ 0.485 µM) |
| CCNC(=Nc1nc(C)ncc1CSc1nnc(-c2ccc(OC)cc2)o1)NCC [Compound A-73] | >10 µg/mL | 0.123 µg/mL | 0.012 µg/mL (≈ 0.0281 µM) | 0.052 µg/mL (≈ 0.122 µM) | 0.029 µg/mL (≈ 0.0678 µM) | 0.016 µg/mL (≈ 0.0374 µM) | 0.048 µg/mL (≈ 0.112 µM) |
| CCNC(=Nc1nc(C)ncc1CSc1nnc(-c2ccc(N)cc2F)o1)NCC [Compound A-81] | >10 µg/mL | 0.0412 µg/mL | 0.009 µg/mL (≈ 0.0209 µM) | 0.023 µg/mL (≈ 0.0534 µM) | 0.016 µg/mL (≈ 0.0372 µM) | 0.007 µg/mL (≈ 0.0163 µM) | 0.032 µg/mL (≈ 0.0743 µM) |
